Laboratory results from US20240199542A1, “SUBSTITUTED PYRROLIDIN-2-ONES, SALTS THEREOF AND THEIR USE AS HERBICIDALLY ACTIVE SUBSTANCES” (Bayer Aktiengesellschaft, priority 2021, published 2024).

Legend:
Assay type in all cases: in vivo
[1] = test system: Echinochloa crus-galli (ECHCG); assay: Herbicidal post-emergence action; details: assessed after ca. 3 weeks
From the text: (§1) Seeds of mono- and dicotyledonous weed plants and crop plants were sown, in plastic or organic planting pots, in sandy loam, covered with soil and grown in a greenhouse under controlled growth conditions. 2 to 3 weeks after sowing, the test plants were sprayed in the single-leaf stage. The compounds according to the invention, formulated in form of wettable powders (WP) or as emulsifiable concentrates (EC), were sprayed onto the green plant parts as aqueous suspension or emulsion, with the addition of 0.5% of an additive, at an application rate of 600 1 of water/ha (converted). The test plants were placed in the greenhouse for ca. 3 weeks under optimum growth conditions, and then the effect of the preparations was assessed visually in comparison with untreated controls (herbicidal effect in percent (%): 100% effect=plants have died off, 0% effect=as control plants).
(§2) Tables B1 to B16 below show the effects of selected compounds of the general formula (I) according to table 1 on various harmful plants and an application rate corresponding to 1280 g/ha or 320 g/ha obtained by the experimental procedure mentioned above.

[2] = test system: Alopecurus myosuroides (ALOMY); assay: Herbicidal post-emergence action; details: 1280 g/ha, assessed after ca. 3 weeks
From the text: as §1, §2

[3] = test system: Polygonum convolvulus (POLCO); assay: Herbicidal post-emergence action; details: assessed after ca. 3 weeks
From the text: as §1, §2

[4] = test system: Avena fatua (AVEFA); assay: Herbicidal post-emergence action; details: 1280 g/ha, assessed after ca. 3 weeks
From the text: as §1, §2

[5] = test system: Echinochloa crus-galli (ECHCG); assay: Herbicidal pre-emergence action; details: 1280 g/ha, graded after ca. 3 weeks
From the text: (§3) Seeds of mono- and dicotyledonous weed plants and crop plants were sown, in plastic or organic planting pots, in sandy loam and covered with soil. The compounds according to the invention, formulated in the form of wettable powders (WP) or as emulsifiable concentrates (EC), were applied to the surface of the covering soil as aqueous suspension or emulsion, with the addition of 0.5% of an additive, at an application rate of 600 1 of water/ha (converted).
(§4) Following treatment, the pots were placed in a greenhouse and kept under optimum growth conditions for the test plants. The visual grading of the damage to the test plants was carried out after ca. 3 weeks in comparison to untreated controls (herbicidal effect in percent (%): 100% effect=plants have died off, 0% effect=as control plants).
(§5) Tables A1 to A16, below, show the effects of selected compounds of the general formula (I) according to table 1 on various harmful plants and an application rate corresponding to 1280 g/ha or lower obtained by the experimental procedure mentioned above.

[6] = test system: Lolium multiflorum (LOLMU); assay: Herbicidal pre-emergence action; details: 1280 g/ha, graded after ca. 3 weeks
From the text: as §3, §4, §5

[7] = test system: Alopecurus myosuroides (ALOMY); assay: Herbicidal pre-emergence action; details: graded after ca. 3 weeks
From the text: as §3, §4, §5

[8] = test system: Setaria viridis (SETVI); assay: Herbicidal pre-emergence action; details: 1280 g/ha, graded after ca. 3 weeks
From the text: as §3, §4, §5

[9] = test system: Polygonum convolvulus (POLCO); assay: Herbicidal pre-emergence action; details: 1280 g/ha, graded after ca. 3 weeks
From the text: as §3, §4, §5

[10] = test system: Avena fatua (AVEFA); assay: Herbicidal pre-emergence action; details: graded after ca. 3 weeks
From the text: as §3, §4, §5

[11] = test system: Lolium multiflorum (LOLMU); assay: Herbicidal post-emergence action; details: assessed after ca. 3 weeks
From the text: as §1, §2

[12] = test system: Cyperus esculentus (CYPES); assay: Herbicidal pre-emergence action; details: graded after ca. 3 weeks
From the text: as §3, §4, §5

[13] = test system: Veronica persica (VERPE); assay: Herbicidal pre-emergence action; details: 1280 g/ha, graded after ca. 3 weeks
From the text: as §3, §4, §5

[14] = test system: Setaria viridis (SETVI); assay: Herbicidal post-emergence action; details: 1280 g/ha, assessed after ca. 3 weeks
From the text: as §1, §2

| SMILES | Post-emergence activity against ECHCG ([1]; 1280 g/ha) | Post-emergence activity against ALOMY [2] | Post-emergence activity against POLCO ([3]; 1280 g/ha) | Post-emergence activity against AVEFA [4] | Pre-emergence activity against ECHCG [5] | Pre-emergence activity against LOLMU [6] | Pre-emergence activity against ALOMY ([7]; 1280 g/ha) | Pre-emergence activity against SETVI [8] | Pre-emergence activity against POLCO [9] | Pre-emergence activity against AVEFA ([10]; 1280 g/ha) | Post-emergence activity against LOLMU ([11]; 1280 g/ha) | Pre-emergence activity against CYPES ([12]; 1280 g/ha) | Pre-emergence activity against VERPE [13] | Post-emergence activity against SETVI [14] | Post-emergence activity against ECHCG ([1]; 320 g/ha) | Post-emergence activity against LOLMU ([11]; 320 g/ha) | Post-emergence activity against POLCO ([3]; 320 g/ha) | Pre-emergence activity against CYPES ([12]; 320 g/ha) | Pre-emergence activity against ALOMY ([7]; 320 g/ha) | Pre-emergence activity against AVEFA ([10]; 320 g/ha) |
| --- | --- | --- | --- | --- | --- | --- | --- | --- | --- | --- | --- | --- | --- | --- | --- | --- | --- | --- | --- | --- |
| O=C(CC1CCC(=O)N1Cc1cccc(F)c1F)OC1CCCC1 (racemic) [Example I-017] | 90% | 80% | 80% | 90% | 90% | 80% | 90% | 90% | 80% | 100% |  |  |  |  |  |  |  |  |  |  |
| CC(C)(C)COC(=O)CC1CCC(=O)N1Cc1cccc(F)c1F (racemic) [Example I-018] | 90% | 80% |  | 80% | 90% | 90% | 90% | 90% | 80% | 100% | 80% | 80% | 90% |  |  |  |  |  |  |  |
| C#CCOC(=O)CC1CCC(=O)N1Cc1cccc(F)c1F (racemic) [Example I-023] | 90% | 80% |  | 80% | 80% | 80% | 90% | 90% |  | 100% | 80% | 80% | 80% | 80% |  |  |  |  |  |  |
| O=C(CC1CCC(=O)N1Cc1cccc(F)c1F)OCCOc1ccccc1 (racemic) [Example I-027] |  |  |  |  |  |  |  |  |  |  |  |  |  |  | 90% | 80% | 80% | 80% | 80% | 90% |
| CCCC(C)OC(=O)CC1CCC(=O)N1Cc1cccc(F)c1F (racemic) [Example I-028] | 80% | 80% |  | 80% | 80% | 90% | 80% | 80% |  | 100% | 80% | 80% | 80% |  |  |  |  |  |  |  |
| CCC(C)OC(=O)CC1CCC(=O)N1Cc1cccc(F)c1F (racemic) [Example I-030] | 80% | 80% |  | 80% | 80% | 80% | 90% | 80% | 80% | 100% | 80% |  | 90% |  |  |  |  |  |  |  |
| O=C(CC1CCC(=O)N1Cc1cccc(F)c1F)OCCS(=O)(=O)c1ccccc1 (racemic) [Example I-032] | 90% | 80% |  |  | 80% |  | 90% |  |  | 100% | 90% | 80% | 80% |  |  |  |  |  |  |  |
| O=C(CC1CCC(=O)N1Cc1cccc(F)c1F)N1CCCC1 (racemic) [Example I-071] |  |  | 80% | 80% |  |  | 80% |  | 80% | 90% |  |  |  |  |  |  |  |  |  |  |
| CCCNC(=O)CC1CCC(=O)N1Cc1cccc(F)c1F (racemic) [Example I-110] |  |  | 80% |  |  |  |  |  |  |  |  |  |  |  |  |  |  |  |  |  |
| COC(=O)C(C(=O)CC1CCC(=O)N1Cc1cccc(F)c1F)C(=O)OC (racemic) [Example I-176] | 90% | 90% | 90% | 80% | 90% | 90% | 90% |  | 80% | 100% | 80% |  |  | 80% |  |  |  |  |  |  |
| COC(=O)[C@H](Cc1c[nH]cn1)NC(=O)CC1CCC(=O)N1Cc1cccc(F)c1F (single isomer, unassigned) [Example I-037] |  | 80% | 80% | 90% | 90% | 90% | 90% | 90% |  | 100% |  | 100% |  |  |  |  |  |  |  |  |
| Cc1nonc1NC(=O)CC1CCC(=O)N1Cc1cccc(F)c1F (centres unmarked) [Example I-046, 2-[1-[(2,3-difluorophenyl)methyl]-5-oxo-pyrrolidin-2-yl]-N-(4-methyl-1,2,5-oxadiazol-3-yl)acetamide] |  |  |  | 90% |  |  |  |  |  | 100% | 80% | 100% | 100% |  |  |  |  |  |  |  |
